Results taken from ChEMBL document CHEMBL3400114, “The design, synthesis and biological evaluation of conformationally restricted 4-substituted-2,6-dimethylfuro[2,3-d]pyrimidines as multi-targeted receptor tyrosine kinase and microtubule inhibitors as potential antitumor agents” (Bioorg Med Chem, 2015).

Key:
[1] = Antiangiogenic activity in VEGF-165 and bFGF-stimulated chicken embryo chorioallantoic membrane assessed as inhibition of blood vessel formation after 40 hrs by microscopy; type: functional, tissue-based, Gallus gallus
HeLa = assay: Antiproliferative activity against human HeLa cells after 48 hrs by sulforhodamine B assay; type: functional, cell-based
NCI-H322M = assay: Growth inhibition of human NCI-H322M cells after 48 hrs by sulforhodamine B assay; type: functional
[2] = Growth inhibition of human SF539 cells after 48 hrs by sulforhodamine B assay; type: functional; details: SF-539, 48 h
SNB-19 = assay: Growth inhibition of human SNB19 cells after 48 hrs by sulforhodamine B assay; type: functional; details: SNB-19, 48 h
Malme-3M = assay: Growth inhibition of human MALME-3M cells after 48 hrs by sulforhodamine B assay; type: functional
SK-MEL-2 = assay: Growth inhibition of human SK-MEL-2 cells after 48 hrs by sulforhodamine B assay; type: functional; details: SK-MEL-2, 48 h
SK-MEL-5 = assay: Growth inhibition of human SK-MEL-5 cells after 48 hrs by sulforhodamine B assay; type: functional; details: SK-MEL-5, 48 h
[3] = Growth inhibition of human UACC62 cells after 48 hrs by sulforhodamine B assay; type: functional; details: UACC-62, 48 h
[4] = Growth inhibition of human COLO205 cells after 48 hrs by sulforhodamine B assay; type: functional; details: COLO 205, 48 h
[5] = Growth inhibition of human HCT116 cells after 48 hrs by sulforhodamine B assay; type: functional; details: HCT-116, 48 h
MCF7 = assay: Growth inhibition of human MCF7 cells after 48 hrs by sulforhodamine B assay; type: functional; details: MCF7, 48 h
[6] = Growth inhibition of human Hs 578T cells after 48 hrs by sulforhodamine B assay; type: functional
K562 = assay: Growth inhibition of human K562 cells after 48 hrs by sulforhodamine B assay; type: functional; details: K562, 48 h
[7] = Growth inhibition of human […] cells after 48 hrs by sulforhodamine B assay; type: functional
Tubulin (Bos taurus) = Tubulin (Bos taurus) (UniProt Q6B856+Q862L2+Q862F3); assay: Displacement of [3H]colchicine from bovine brain tubulin assembly at 1 uM

COc1ccc2c(c1)CCCN2c1nc(C)nc2oc(C)cc12
IC50 [1]: 104000 nM | IC50 (HeLa): 13.5 nM | GI50 (NCI-H322M): < 10 nM | GI50 [2]: < 10 nM | GI50 (SNB-19): < 10 nM | GI50 (Malme-3M): < 10 nM | GI50 (SK-MEL-2): < 10 nM | GI50 (SK-MEL-5): < 10 nM | GI50 [3]: < 10 nM | GI50 [4]: < 10 nM | GI50 [5]: < 10 nM | GI50 (MCF7): < 10 nM | GI50 [6]: < 10 nM | GI50 (K562): < 10 nM | GI50 [7]: < 10 nM | inhibition (Tubulin (Bos taurus)): 82%
